This assay addresses T1, CHO cells expressing human CB2 receptors (Homo sapiens, UniProt P34972).
T1 construct: expressed in transfected cells; host or cells: CHO cells, stably transfected
The experiment in a line: cell-based LANCE cAMP assay. The following applies: forskolin-stimulated, RO-20-1724 present, FIG. 4. As to the method:
FIG. 4 relates to cAMP Assay Results. LANCE signal of CB2 ligands. Stably transfected CHO cells expressing human CB2 receptors were utilized to carry out the LANCE cAMP assay. […] Data is mean±SEM of all experiments of two or more performed in triplicate.
(§1) The antibodies are labeled with Alexa Fluor dye that is sensitive to energy emissions. Briefly, the cell-based LANCE cAMP assays were performed on 384-well ProxiPlates using CHO cells stably expressing the CB2 receptors at density of 2×10^3 cells per well in 5 μL of RPMI-1640 medium (Gibco Laboratories, Grand Island, N.Y.) containing 1% dialyzed FBS, 25 mM HEPES, […], and 200 μg/ml of […]. After incubation overnight, 2.5 μL of cAMP antibody and RO20-1724 (a phosphodiesterase inhibitor) in stimulation buffer (DPBS 1×, containing 0.1% BSA) was added to each well, followed by the addition of 2.5 μL of the compound plus the forskolin complex (an adenyl cyclase activator). After incubation at room temperature for 45 minutes, 10 μL of detection buffer was added into each well. The plate was then incubated at room temperature for 1 hour. The plate was then measured in a Synergy H1 hybrid reader (BioTek) with excitation at 340 nm and emission at 665 nm. The results represent at least two independent experiments each in triplicates. EC50 values were determined by nonlinear regression dose-response curve (GraphPad Prism 5).
as §1, with “Cyclic AMP levels were measured by performing the cell-based LANCE cAMP-384 kit assay (PerkinElmer) as previously described 13-14. The assay is based on the competition between the europium-labeled cAMP tracer complex and sample cAMP for binding sites on cAMP-specific antibodies. The antibodies” for “The antibodies”
The LANCE cAMP assay was carried out to measure the functional activities of our synthesized CB2 selective ligands as previously described 14. Briefly, the assay was performed on 384-well plates using CHO cells stably expressing CB2 receptors in the presence of phosphodiesterase inhibitor, RO-20-1724 and adenyl cyclase activator, forskolin.
(TR-FRET usually uses a lanthanide donor and a delayed reading to cut background.)
T1 sequence (P34972 whole entry): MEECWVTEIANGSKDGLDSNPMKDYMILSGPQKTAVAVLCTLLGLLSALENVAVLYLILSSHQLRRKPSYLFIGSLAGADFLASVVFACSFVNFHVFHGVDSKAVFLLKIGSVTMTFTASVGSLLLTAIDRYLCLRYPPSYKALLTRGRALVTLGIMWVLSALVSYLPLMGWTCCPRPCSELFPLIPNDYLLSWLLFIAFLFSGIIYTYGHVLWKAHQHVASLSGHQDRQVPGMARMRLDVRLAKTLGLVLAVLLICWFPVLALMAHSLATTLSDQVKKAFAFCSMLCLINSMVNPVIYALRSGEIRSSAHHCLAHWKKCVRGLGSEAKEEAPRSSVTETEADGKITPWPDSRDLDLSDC
Turning to `CCN(CC)c1ccc(CN(Cc2cc(OC)c(OC)c(OC)c2)C(=O)c2cccs2)cc1` [Compound 11, N-(4-(diethylamino)benzyl)-N-(3,4,5-trimethoxybenzyl)thiophene-2-carboxamide], the “CB2 functional activity (LANCE cAMP signal)” value is listed as “CB2 selective agonist”.
With `CCN(CC)c1ccc(CN(Cc2cc(OC)c(OC)c(OC)c2)S(=O)(=O)/C=C/c2ccccc2)cc1` [Compound 15, (E)-N-(4-(diethylamino)benzyl)-2-phenyl-N-(3,4,5-trimethoxybenzyl)ethene-1-sulfonamidebenzenesulfonamide], the “CB2 functional activity (LANCE cAMP signal)” value is “inverse agonists”.
To `CCN(CC)c1ccc(CN(Cc2cc(OC)c(OC)c(OC)c2)S(=O)(=O)c2ccc(C=O)cc2)cc1` [Compound 18, N-(4-(diethylamino)benzyl)-4-formyl-N-(3,4,5-trimethoxybenzyl)benzenesulfonamide] belongs “inverse agonists”.

Source of the values: patent US11059778B2, “Cannabinoid receptor CB2 ligand 4-(aminomethyl)-N, N-dialkylanilines” (UNIVERSITY OF PITTSBURGH—OF THE COMMONWEALTH SYSTEM OF …, priority 2015, dated 2021).
